Assays:
Type in all cases: in vivo
[1] = tested on: green foxtail (Setaria viridis); assay: Test A preemergence soil spray, visual injury rating 0-100; conditions: 10 days
Procedure, shortened: (§1)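 Compounds formulated in a non-phytotoxic solvent with surfactant are sprayed onto soil of freshly planted loam-sand pots ahead of emergence, or onto emerged plants 2-10 cm tall. After a 10-day greenhouse period, each species is scored visually for injury against untreated controls.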

[2] = tested on: ryegrass, Italian (italian ryegrass, Lolium multiflorum); assay: as above; conditions: 10 days
Procedure, shortened: as §1

[3] = tested on: barnyardgrass (Echinochloa crus-galli); assay: as above; conditions: 10 days
Procedure, shortened: as §1

[4] = tested on: kochia (Bassia scoparia); assay: as above; conditions: 10 days
Procedure, shortened: as §1

[5] = tested on: ragweed (common ragweed, Ambrosia artemisiifolia); assay: as above; conditions: 10 days
Procedure, shortened: as §1

[6] = tested on: oat, wild (wild oat, Avena fatua); assay: as above; conditions: 10 days
Procedure, shortened: as §1

[7] = tested on: soybean (Glycine max); assay: as above; conditions: 10 days
Procedure, shortened: as §1

[8] = tested on: blackgrass (Alopecurus myosuroides); assay: as above; conditions: 10 days
Procedure, shortened: as §1

[9] = tested on: corn (Zea mays); assay: as above; conditions: 10 days
Procedure, shortened: as §1

[10] = tested on: wheat (Triticum aestivum); assay: as above; conditions: 10 days
Procedure, shortened: as §1

[11] = tested on: palmer (palmer amaranth, palmer pigweed, Amaranthus palmeri); assay: as above; conditions: 62 g ai/ha, 10 days, 0 = no effect, 100 = complete control
Procedure, shortened: as §1

[12] = tested on: green foxtail (Setaria viridis); assay: Test A postemergence application, visual injury rating 0-100
Procedure, shortened: as §1

[13] = tested on: ryegrass, Italian (italian ryegrass, Lolium multiflorum); assay: as above
Procedure, shortened: as §1

[14] = tested on: barnyardgrass (Echinochloa crus-galli); assay: as above
Procedure, shortened: as §1

[15] = tested on: kochia (Bassia scoparia); assay: as above
Procedure, shortened: as §1

[16] = tested on: ragweed (common ragweed, Ambrosia artemisiifolia); assay: as above
Procedure, shortened: as §1

[17] = tested on: oat, wild (wild oat, Avena fatua); assay: as above
Procedure, shortened: as §1

[18] = tested on: soybean (Glycine max); assay: as above
Procedure, shortened: as §1

[19] = tested on: blackgrass (Alopecurus myosuroides); assay: as above
Procedure, shortened: as §1

[20] = tested on: corn (Zea mays); assay: as above
Procedure, shortened: as §1

[21] = tested on: wheat (Triticum aestivum); assay: as above
Procedure, shortened: as §1

[22] = tested on: palmer (palmer amaranth, palmer pigweed, Amaranthus palmeri); assay: as above
Procedure, shortened: as §1

[23] = tested on: horseweed (Erigeron canadensis); assay: as above
Procedure, shortened: as §1

[24] = tested on: galium (catchweed bedstraw, Galium aparine); assay: as above
Procedure, shortened: as §1

[25] = tested on: ducksalad (Heteranthera limosa); assay: Test B flooded paddy test, visual plant response rating 0-100; conditions: 250 g ai/ha, Flood, applied to paddy water, evaluated after 13 days
Procedure, shortened: (§2)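 Compounds applied to standing paddy water (3 cm above soil, maintained for the test duration) on 2-leaf-stage plants; visual rating vs controls at 13 days, greenhouse.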

[26] = tested on: rice (Oryza sativa); assay: as above; conditions: 250 g ai/ha, Flood, applied to paddy water, evaluated after 13 days
Procedure, shortened: as §2

[27] = tested on: sedge, umbrella (small-flower umbrella sedge, Cyperus difformis); assay: as above; conditions: 250 g ai/ha, Flood, applied to paddy water, evaluated after 13 days
Procedure, shortened: as §2

[28] = tested on: barnyardgrass (Echinochloa crusgalli); assay: as above; conditions: 250 g ai/ha, Flood, applied to paddy water, evaluated after 13 days
Procedure, shortened: as §2

[29] = 62 g ai/ha, 0 = no effect, 100 = complete control
[30] = 62 g ai/ha, postemergence, 10 days, 0 = no effect, 100 = complete control
[31] = Postemergence, 16 g ai/ha, greenhouse 10 days, 0 no effect, 100 complete control

SMILES: COC(=O)C1=CCC(NC(=O)C2(C)CN(c3cc(F)cc(Cl)c3)C(=O)O2)C1 (stereo not drawn) [Compound 140]
- Foxtail, Green plant response rating ([1]; 16 g ai/ha, 0 to 100 scale): 80
- Foxtail, Green plant response rating (0-100) [1, 29]: 90
- Ryegrass, Italian plant response rating ([2]; 16 g ai/ha, 0 to 100 scale): 50
- Ryegrass, Italian plant response rating (0-100) [2, 29]: 90
- Barnyardgrass plant response rating ([3]; 16 g ai/ha, 0 to 100 scale): 50
- Barnyardgrass plant response rating (0-100) [3, 29]: 100
- Kochia plant response rating ([4]; 16 g ai/ha, 0 to 100 scale): 50
- Kochia plant response rating (0-100) [4, 29]: 100
- Ragweed plant response rating ([5]; 16 g ai/ha, 0 to 100 scale): 0
- Ragweed plant response rating (0-100) [5, 29]: 0
- Oat, Wild plant response rating ([6]; 16 g ai/ha, 0 to 100 scale): 20
- Oat, Wild plant response rating (0-100) [6, 29]: 20
- Soybean plant response rating ([7]; 16 g ai/ha, 0 to 100 scale): 0
- Soybean plant response rating (0-100) [7, 29]: 80
- Blackgrass plant response rating ([8]; 16 g ai/ha, 0 to 100 scale): 0
- Blackgrass plant response rating (0-100) [8, 29]: 50
- Corn plant response rating ([9]; 16 g ai/ha, 0 to 100 scale): 10
- Corn plant response rating (0-100) [9, 29]: 60
- Wheat plant response rating ([10]; 16 g ai/ha, 0 to 100 scale): 40
- Wheat plant response rating (0-100) [10, 29]: 80
- Pigweed, Palmer plant response rating (0-100) [11]: 90
- Foxtail, Green plant response rating (0-100) [12, 30]: 90
- Foxtail, Green plant response rating (0 to 100 scale) [12, 31]: 90
- Ryegrass, Italian plant response rating (0-100) [13, 30]: 80
- Ryegrass, Italian plant response rating (0 to 100 scale) [13, 31]: 60
- Barnyardgrass plant response rating (0-100) [14, 30]: 100
- Barnyardgrass plant response rating (0 to 100 scale) [14, 31]: 100
- Kochia plant response rating (0-100) [15, 30]: 90
- Kochia plant response rating (0 to 100 scale) [15, 31]: 90
- Ragweed plant response rating (0-100) [16, 30]: 70
- Ragweed plant response rating (0 to 100 scale) [16, 31]: 50
- Oat, Wild plant response rating (0-100) [17, 30]: 90
- Oat, Wild plant response rating (0 to 100 scale) [17, 31]: 60
- Soybean plant response rating (0-100) [18, 30]: 70
- Soybean plant response rating (0 to 100 scale) [18, 31]: 70
- Blackgrass plant response rating (0-100) [19, 30]: 100
- Blackgrass plant response rating (0 to 100 scale) [19, 31]: 90
- Corn plant response rating (0-100) [20, 30]: 100
- Corn plant response rating (0 to 100 scale) [20, 31]: 100
- Wheat plant response rating (0-100) [21, 30]: 90
- Wheat plant response rating (0 to 100 scale) [21, 31]: 80
- Pigweed, Palmer plant response rating (0-100) [22, 30]: 80
- Pigweed, Palmer plant response rating (0 to 100 scale) [22, 31]: 60
- Horseweed plant response rating (0-100) [23, 30]: 90
- Horseweed plant response rating (0 to 100 scale) [23, 31]: 80
- Galium plant response rating (0-100) [24, 30]: 90
- Galium plant response rating (0 to 100 scale) [24, 31]: 70
- Plant response rating, Ducksalad (0 to 100 scale, 0 is no effect and 100 is complete control) [25]: 65
- Plant response rating, Rice (0 to 100 scale, 0 is no effect and 100 is complete control) [26]: 65
- Plant response rating, Sedge, Umbrella (0 to 100 scale, 0 is no effect and 100 is complete control) [27]: 100
- Plant response rating, Barnyardgrass (0 to 100 scale, 0 is no effect and 100 is complete control) [28]: 85

Reference: patent US20260285850A1, “SUBSTITUTED OXAZOLIDINONES AND IMIDAZOLINONES AS HERBICIDES” (FMC CORPORATION, priority 2023, published 2026)
